In ChEMBL document CHEMBL6078624, “Structure-based discovery of a 4,5-Dihydropyrazole-cored PET ligand for imaging of receptor-interacting serine/threonine-protein kinase 1 (RIPK1) in the brain” (Eur J Med Chem, 2024):

Experiments:
[1] = Drug uptake in male Sprague-Dawley rat cerebellum at 12.6 to 18.6 MBq, iv administered into tail vein by PET/CT imaging analysis; type: ADME, organism-based; conditions: in vivo, dose 12.6-18.6 MBq
[2] = Drug uptake in male Sprague-Dawley rat cortex at 12.6 to 18.6 MBq, iv administered into tail vein by PET/CT imaging analysis; type: ADME, organism-based; conditions: in vivo, dose 12.6-18.6 MBq
[3] = Biodistribution in male ICR mouse brain at 0.74 MBq, iv administered into tail vein measured at 2 mins post-injection by automatic gamma counter analysis; type: ADME, organism-based; conditions: in vivo
[4] = Biodistribution in male ICR mouse brain at 0.74 MBq, iv administered into tail vein measured at 10 mins post-injection by automatic gamma counter analysis; type: ADME, organism-based; conditions: in vivo
[5] = Biodistribution in male ICR mouse bone at 0.74 MBq, iv administered into tail vein measured at 60 mins post-injection by automatic gamma counter analysis; type: ADME, organism-based, Bone element; conditions: in vivo, 1 h
[6] = Biodistribution in male ICR mouse heart at 0.74 MBq, iv administered into tail vein by automatic gamma counter analysis; type: ADME, organism-based; conditions: in vivo
[7] = Biodistribution in male ICR mouse lungs at 0.74 MBq, iv administered into tail vein by automatic gamma counter analysis; type: ADME, organism-based, Lung; conditions: in vivo
[8] = Biodistribution in male ICR mouse kidneys at 0.74 MBq, iv administered into tail vein by automatic gamma counter analysis; type: ADME, organism-based, Kidney; conditions: in vivo
[9] = Biodistribution in male ICR mouse pancreas at 0.74 MBq, iv administered into tail vein by automatic gamma counter analysis; type: ADME, organism-based; conditions: in vivo
[10] = Biodistribution in male ICR mouse heart at 0.74 MBq, iv administered into tail vein measured at 60 mins post-injection by automatic gamma counter analysis; type: ADME, organism-based; conditions: in vivo, 1 h
[11] = Biodistribution in male ICR mouse liver at 0.74 MBq, iv administered into tail vein measured at 60 mins post-injection by automatic gamma counter analysis; type: ADME, organism-based; conditions: in vivo, 1 h
[12] = Biodistribution in male ICR mouse brain at 0.74 MBq, iv administered into tail vein pre-treated with GSK'547 followed by compound addition by automatic gamma counter analysis relative to baseline; type: ADME, organism-based; conditions: in vivo
[13] = Biodistribution in male ICR mouse brain at 0.74 MBq, iv administered into tail vein pre-treated with WL8 followed by compound addition by automatic gamma counter analysis relative to baseline; type: ADME, organism-based; conditions: in vivo
[14] = Biodistribution in male ICR mouse heart at 0.74 MBq, iv administered into tail vein pre-treated with GSK'547 followed by compound addition by automatic gamma counter analysis relative to baseline; type: ADME, organism-based; conditions: in vivo
[15] = Biodistribution in male ICR mouse liver at 0.74 MBq, iv administered into tail vein pre-treated with WL8 followed by compound addition by automatic gamma counter analysis relative to baseline; type: ADME, organism-based; conditions: in vivo
[16] = Biodistribution in male ICR mouse spleen at 0.74 MBq, iv administered into tail vein pre-treated with WL8 followed by compound addition by automatic gamma counter analysis relative to baseline; type: ADME, organism-based; conditions: in vivo
[17] = Biodistribution in male ICR mouse kidney at 0.74 MBq, iv administered into tail vein pre-treated with GSK'547 followed by compound addition by automatic gamma counter analysis relative to baseline; type: ADME, organism-based; conditions: in vivo
[18] = Biodistribution in male ICR mouse muscle tissue at 0.74 MBq, iv administered into tail vein pre-treated with GSK'547 followed by compound addition by automatic gamma counter analysis relative to baseline; type: ADME, organism-based; conditions: in vivo
[19] = Biodistribution in male ICR mouse bone at 0.74 MBq, iv administered into tail vein pre-treated with GSK'547 followed by compound addition by automatic gamma counter analysis relative to baseline; type: ADME, organism-based, Bone element; conditions: in vivo
[20] = Biodistribution in male ICR mouse small intestine 0.74 MBq, iv administered into tail vein pre-treated with GSK'547 followed by compound addition by automatic gamma counter analysis relative to baseline; type: ADME, organism-based; conditions: in vivo
[21] = Biodistribution in male ICR mouse brain at 0.74 MBq, iv administered into tail vein pre-treated with WL8 at 6 mg/kg followed by compound addition by automatic gamma counter analysis; type: ADME, organism-based; conditions: in vivo
[22] = Biodistribution in male ICR mouse brain at 0.74 MBq, iv administered into tail vein pre-treated with WL8 at 2 mg/kg followed by compound addition by automatic gamma counter analysis; type: ADME, organism-based; conditions: in vivo
[23] = Biodistribution in male ICR mouse blood at 0.74 MBq, iv administered into tail vein pre-treated with WL8 followed by compound addition by automatic gamma counter analysis; type: ADME, organism-based; conditions: in vivo
[24] = Biodistribution in male ICR mouse blood at 0.74 MBq, iv administered into tail vein pre-treated with GSK'547 followed by compound addition by automatic gamma counter analysis; type: ADME, organism-based; conditions: in vivo
[25] = Biodistribution in male ICR mouse bone at 0.74 MBq, iv administered into tail vein pre-treated with GSK'547 followed by compound addition by automatic gamma counter analysis; type: ADME, organism-based, Bone element; conditions: in vivo
[26] = Drug degradation in male mouse brain assessed as parent compound remaining at 26.6 MBq by radio-HPLC analysis; type: ADME, tissue-based
[27] = Drug degradation in male mouse liver assessed as parent compound remaining at 26.6 MBq by radio-HPLC analysis; type: ADME, tissue-based

Cc1ccc(C2CC=NN2C(=O)C2CCN(C(=O)c3cccc([18F])n3)CC2)cc1F (configuration not stated)
SUV [1]: Active
SUV [2]: Active
Drug uptake [3]: 4.8 % ID/g
Drug uptake [4]: 1.34 % ID/g
Drug uptake [5]: 6.69 % ID/g
Drug uptake [6]: > 6.5 % ID/g
Drug uptake [7]: > 6.5 % ID/g
Drug uptake [8]: > 6.5 % ID/g
Drug uptake [9]: > 6.5 % ID/g
Drug uptake [10]: < 4 % ID/g
Drug uptake [11]: < 4 % ID/g
Drug uptake [12]: Active
Drug uptake [13]: Active
Drug uptake [14]: Active
Drug uptake [15]: Active
Drug uptake [16]: Active
Drug uptake [17]: Active
Drug uptake [18]: Active
Drug uptake [19]: Not_active
Drug uptake [20]: Not_active
Drug uptake [21]: 129%
Drug uptake [22]: 58%
Drug uptake [23]: > 58%
Drug uptake [24]: > 58%
Drug uptake [25]: > 29%
Stability [26]: 35.2%
Stability [27]: 13.6%
